Reference: patent US11311598B2, “Peptides and analogs for use in the treatment of oral mucositis” (Soligenix, Inc., priority 2013, dated 2022)
Where no end group is shown, it is not given here.

Assays:
[1] = test system: Klebsiella pneumoniae (Catalog No. 43816, ATCC); test: Klebsiella peritoneal infection model; format: in vivo, mouse
Procedure: RIVPA (SEQ ID NO. 5) treatment (24 mg/kg) was administered either IP (24 h prior to infection or 4 h post-infection) or IV (4 h post-infection) to female Balb/c mice (N=8/group) inoculated with Klebsiella pneumoniae (Catalog No. 43816, ATCC) at either 2.8×10^5 cfu (FIG. 13—panel A) or 5.3×10^2 cfu (FIG. 13—panel B) and survival was monitored over 24 h. A survival endpoint is shown for animals receiving the higher inoculum of bacteria (panel A).

CYP450 enzymes = test: processing by or inhibition of CYP450 enzymes; format: in vitro ADME
[2] = test system: S. aureus (Catalog No. 25923, ATCC); test: S. aureus acute peritoneal infection model, local IP treatment; format: in vivo, mouse; conditions: female CD-1 mice, 9.5 mg/kg IP 4 h after infection; 24 h after infection
Procedure: Intraperitoneal (IP) injection of S. aureus (Catalog No. 25923, ATCC, 6×10^7 cfu) with 5% mucin was administered IP to female CD-1 mice (N=8/group) and RIVPA (SEQ ID NO. 5) (9.5 mg/kg) was injected IP 4 h later. Mice were sacrificed 24 h after infection and peritoneal lavage fluid was assessed for bacterial counts. The results of this study are shown in FIG. 11 (each data point represents the result from an individual mouse—dead mice were given the highest bacterial count of any mouse obtained in the study and are represented as open symbols in the graph).

[3] = test system: primary human leukemia cells; test: proliferation of primary human leukemia cells in vitro; format: cell-based
S. aureus = S. aureus infection studies, single IV RIVPA treatment (Table 2 summary); format: in vivo, mouse; conditions: for % Successful Treatments Any Dose Schedule: success = at least 20% increase in survival over saline control
cynomolgus monkeys = test: cynomolgus monkey IV toxicity studies (pilot, GLP 14-day); format: in vivo; conditions: for occurrence of acute toxicity (respiratory depression): cynomolgus monkey
Procedure: Two pilot and 2 definitive repeat-dose toxicity studies were conducted with RIVPA (SEQ ID NO. 5) in mice and cynomolgus monkeys using the intravenous (IV; slow bolus) route of administration. All studies were conducted by LAB Research Inc., Canada.
These resolved within a few minutes without detectable residual effects.
RIVPA (SEQ ID NO. 5) at 20, 80, 160 mg/kg/day was given IV to cynomolgus monkeys for 14 days. […] In all cases, these clinical signs resolved within a few minutes. […] A dose level of 80 mg/kg/day was considered to be the No-Observed-Adverse-Effect-Level (NOAEL) for this study.
Overall, the NOAEL is considered to be 80 mg/kg/day for cynomolgus monkeys since transient clinical signs were limited to a single study and occurred in only 2 instances of the 98 administrations of the drug at this dose level.
The observed respiratory depression occurred at different dose levels in different species, and was not predicted by allometric scaling. In particular, the mouse appeared to be the most sensitive species with acute toxicity occurring rarely at 60 mg/kg (HED: ^˜5 mg/kg) and commonly at 90 mg/kg (HED: ^˜7 mg/kg). In contrast in NHP (cynomologus monkey), acute toxicity occurred occasionally at 160 mg/kg (HED: ^˜50 mg/kg) and consistently at 240 mg/kg (HED: ^˜78 mg/kg).

CD-1 mice = test: recovery of circulating blood cells after induction of leukopenia; format: in vivo, mouse; conditions: Cp-induced leukopenia, 20 or 50 mg/kg IV on Days 5, 7, 9 and 11
Procedure: Leukopenia was induced with 2 IP injections of Cp (150 mg/kg on Day 1 and 100 mg/kg on Day 4), resulting in well-established leukopenia by Day 4 that persisted until approximately Day 10. Saline or RIVPA (SEQ ID NO. 5) (20 or 50 mg/kg) was administered IV on Days 5, 7, 9 and 11. Six animals per group were sacrificed on each of Days 6, 8, 10, 12 and 14 and evaluated for complete blood count and differential. Neither the levels nor dynamics of the total leukocyte and differential white blood cell counts were altered during the course of recovery when compared to the vehicle control group (FIG. 15).

MRSA (strain USA300) = test: MRSA bacteremia model in nu/nu mice lacking T-cells; format: in vivo, mouse; conditions: female nu/nu mice, single dose 50 mg/kg IV 4 h prior to infection; 14 days
Procedure: RIVPA (SEQ ID NO. 5) is also effective when administered by itself. Multiple studies with IV administered RIVPA (SEQ ID NO. 5) were conducted in a MRSA bacteremia model. […] In the first study, MRSA (USA300, 7.3 log 10 cfu) was administered via IV injection into the tail vein of female Balb/c mice at time 0. Four hours prior to infection, a single dose of saline or RIVPA (SEQ ID NO. 5) at the indicated dose levels was injected IV into the tail vein. Sub-optimal antibiotic treatment (linezolid, 6.25 mg/kg) was administered once orally immediately after infection. Survival was monitored for 21 days after the infection. In the second study, RIVPA (SEQ ID NO. 5) (IV) or saline (IV) was administered once 4 h prior to infection with MRSA (strain USA300, 7.0 log10 cfu) via the tail vein into female nu/nu mice. Statistically significant differences (i.e., p≤05) in survival were found with the 50 mg/kg dose level as assessed using Kaplan Meier analysis of each treatment group relative to the saline control.

[4] = test system: CNS receptors and ion channels; test: battery of CNS receptors and ion channels in vitro; format: binding
Procedure: (§1) No effects of RIVPA (SEQ ID NO. 5) have been observed on the central nervous system (CNS) in any study at any dose level and little or no radiolabelled RIVPA (SEQ ID NO. 5) was found in the mouse CNS at dose levels of either 20 or 90 mg/kg.

[5] = test system: central nervous system (CNS); test: effects on the central nervous system in any study; format: in vivo; conditions: any study at any dose level
Procedure: as §1

RIVPA-NH2 [RIVPA (SEQ ID NO. 5), RIVPA] was tested, and the “systemic versus local administration” value ([1]; 24 mg/kg IV vs IP) was “as good or better than local administration”, the “survival at the lower inoculum” value ([1]; 5.3×10^2 cfu, 24 h) was “survived in all groups” and the survival ([1]; female Balb/c mice, 24 mg/kg IP or IV, 24 h) was “increased survival”. The “inhibition of CYP450 enzymes” value (CYP450 enzymes) was “lack”, the “processing by CYP450 enzymes” value (CYP450 enzymes) was “lack” and the “reduction of bacterial load in peritoneal lavage fluid” value [2] was “over 7 logs”. For the same substance, the “proliferation of primary leukemia cells” value [3] was “did not promote the proliferation”, the “dose dependence of effects” value (S. aureus; between 1 and 50 mg/kg in mouse) was “dose dependent” and the “dose levels consistently demonstrating efficacy” value (S. aureus; mouse, stand-alone IV) was ≥ 25 mg/kg. The “% Successful Treatments RIVPA administered 4 h prior to infection” value (S. aureus; single IV dose 1 mg/kg) was 0%, the “% Successful Treatments Any Dose Schedule” value (S. aureus; single IV dose 1 mg/kg) was 0% and the “% Successful Treatments RIVPA administered 4 h prior to infection” value (S. aureus; single IV dose 5 mg/kg) was 33%. For the same substance, the “% Successful Treatments Any Dose Schedule” value (S. aureus; single IV dose 5 mg/kg) was 42%, the “% Successful Treatments RIVPA administered 4 h prior to infection” value (S. aureus; single IV dose 25 mg/kg) was 50% and the “% Successful Treatments Any Dose Schedule” value (S. aureus; single IV dose 25 mg/kg) was 67%. For the same substance, the “% Successful Treatments RIVPA administered 4 h prior to infection” value (S. aureus; single IV dose 50 mg/kg) was 100%, the “% Successful Treatments Any Dose Schedule” value (S. aureus; single IV dose 50 mg/kg) was 100% and the “HED of acutely toxic dose” value (cynomolgus monkeys; NHP 160 mg/kg) was ~50 mg/kg. The “HED of acutely toxic dose” value (cynomolgus monkeys; NHP 240 mg/kg) was ~78 mg/kg, the “immune-related organ weights, histopathology, hematology and clinical chemistry” value (cynomolgus monkeys; NHP 14-day toxicity study) was “no changes were observed” and the clinical signs (cynomolgus monkeys; NHP pilot studies, 90 (1 animal), 180 (both animals) and 220 (1 animal) mg/kg, during and shortly after dosing) was “mild clinical signs”. For the same substance, the “T-cell, B-cell or NK-cell counts” value (cynomolgus monkeys; NHP, after 14 days of intravenous dosing) was “no effect”, the “occurrence of acute toxicity (respiratory depression)” value (cynomolgus monkeys; 160 mg/kg) was “occasionally” and the “occurrence of acute toxicity (respiratory depression)” value (cynomolgus monkeys; 240 mg/kg) was “consistently”. For the same substance, the clinical signs (cynomolgus monkeys; cynomolgus monkeys, 160 mg/kg/day IV for 14 days) was “Transient decreased activity and partially closed eyes”, the toxicity (cynomolgus monkeys; cynomolgus monkeys, 20 and 80 mg/kg/day IV for 14 days) was “did not result in any evidence of toxicity” and the “recovery of circulating blood cell populations after induction of leukopenia” value (CD-1 mice) was “did not alter”. For the same substance, the “survival over the saline control” value (MRSA (strain USA300)) was “statistically significant enhanced survival”, the “interaction with CNS receptors and ion channels” value [4] was “No interaction was detected” and the “effects on the central nervous system (CNS)” value [5] was “No effects”.
